The term ED50 denotes the dose at which the effect has come halfway, by size or by number of responders. For orientation: LD50 means the dose expected to kill half of the subjects tested. Lower therefore signals a more toxic substance.

These results are taken from patent publication US4734416A, “Pharmaceutically useful carbostyril derivatives” (Otsuka Pharmaceutical Co., Ltd., priority 1978, dated 1988).

Where a name gives a salt, the structure may show the parent alone.

The nature of series [1]: Activity for inhibiting fighting behavior of mouse isolated singly for a long period of time. In kind it is in vivo, mouse (male, ddy-strain). The note with it: positive if fighting no longer than 5 seconds in a minute, range in parentheses, read-out: ED50 (inhibition of fighting behavior). The method, then:
Individual male mice of ddy-strain having 15 to 20 g of body weight are breeded separately in respective cages for 1 month. One test group consists of 10 pairs of mice. The pairs of mice are selected so that when one mouse is taken into the home cage of another, the two mice fight together continuously for over 30 seconds. ED50 values are calculated by administering the respective test compounds to each test groups of mice. Activity for inhibiting fighting behavior of the test compound is determined as positive in case the administered mice only continue the fighting for no longer than 5 seconds in a minute. When the mice continue the fighting over 5 seconds they are forced to separate for the purpose of reducing the number of injured mice. [Reference: C. Y. Yen, R. L. Stanger and N. Millman: Arch. Int. Pharmacodyn., 123, 179 (1959)]

Series [2] has as its target T1, enucleated ileum of a guinea pig (Cavia porcellus, UniProt P31389).
T1 construct: the tissue of ileum is cut to a length of 2.5 to 3.0 cm and suspended in an organ bath; from tissue; host or cells: isolated ileum from the ileocecal region of male guinea pig
In words: Antihistamine activity test in vitro (enucleated guinea pig ileum, histamine retraction, pA2 by Van Rossam method). The note with it: 10^-6 g/ml test compound, 5 minutes before histamine, 36° C. As for the experimental part:
As to the test method for determining antihistamine activity of a compound in vitro, a method of using an enucleated ileum of a guinea pig is generally accepted.
A male guinea pig having 300 to 500 g body weight is killed by blood letting. An ileum having a length of 15 cm being enculeated from the ileocecal region is dipped into Tyrode's solution (which is prepared from […], 0.2 g of KCl, 0.2 g of CaCl2, 1.0 g of glucose, 1.0 g of NaHCO3, 0.065 g of NaHPO4.2H2 O and 0.2135 g of MgCl2.6H2 O to make 1000 ml in total volume by adding water). Then the tissue of ileum is cut to a length of 2.5 to 3.0 cm and suspended in an organ bath filled with 30 ml of Tyrode's solution. The organ bath is kept at a temperature of 36° C. and a mixed gas consisting of 5% of CO2 and 95% of O2 is blown into the bath. 10 Minutes after the blowing, 10^-6 M of histamine is added to the bath to examine the sensitivity of the tissue and a reaction curve (control) with respect to the dosage of histamine is obtained. After the dosage of histamine-reaction curve (control) becomes constant, 10^-6 g/ml of a compound to be tested is added to the bath and further histamine is added 5 minutes later to obtain a dosage-reaction curve. Retraction of the ileum is recorded on a pen-recorder through an isotonic transducer [TD-112S manufactured by Nihon Koden]. Antihistamine activity of the test compound is determined as pA2 value by the "Van Rossam" method [J. M. Van Rossam; Arch. Inst. Pharmacodyn., 143, 299 (1963)] wherein the maximum retraction of ileum caused by histamine shown in the control curve is 100%.

Series [3] is described as follows: Halothane anesthesia increasing activity (righting reflex). The format is in vivo, mouse (male, ddy-strain). The following applies: oral; for Time (minutes) between introduction of anesthesia and waking: 8 mg/kg, 1 hour before 4% Halothane. The method, then: Male mice of ddy-strain having about 20 g body weight are used. One test group consists of 10 mice. An aqueous Gummi Arabicum suspension of test compound (80 mg of a compound to be tested and 1 g of Gummi Arabicum/100 ml of physiological NaCl solution) is administered orally to each mouse at the dosage of 8 mg of test compound/kg body. One hour after the administration, each mouse is placed in a gas respiration chamber (13×13×24 cm) and oxygen gas containing 4% of Halothane [2-bromo-2-chloro-1,1,1-trifluoroethane] is blown into the chamber at the velocity of 2 l/min for 3 minutes. A mouse anaesthetized is taken out from the chamber and the time between the introduction of anesthesia to waking is measured by righting reflex as the index. To mice of the control group, 1% Gummi Arabicum aqueous physiological solution is orally administered at the dosage of 0.1 ml/10 g body. [Reference: M. J. Turnbull and J. W. Watkins: Br. J. Pharmac., 58, 27-35 (1976)]
Same procedures as mentioned in (II)-(A) are employed, except that the amount of test compound to be orally administered is changed in 4 steps at the dosage of 0.5 mg/kg, 1 mg/kg, 2 mg/kg and 4 mg/kg respectively to measure the relationship between the dosage and degree of strength of anesthesia increasing activity.

Series [4] in a line: in vivo. The following applies: mouse. As for the experimental part:
Mice of ddy-strain having 20-22 g of body weight are used. One test group consists of 10 mice.
Oral administration: Compound to be tested is suspended in 1% Gummi Arabicum physiological NaCl aqueous solution.
Intravenuous administration: Compound to be tested is dissolved in 50% propyleneglycol aqueous solution.

A short description of series [5]: Hexabarbital sleep increasing activity (righting reflex). The format is in vivo, mouse (male, ddy-strain). The note with it: oral, Hexabarbital Na 70 mg/kg i.p. As for the experimental part:
Male mice of ddy-strain having 20 to 25 g body weight are starved for 24 hours. One test group consists of 10 mice. An aqueous Gummi Arabicum suspension of test compound (0.05 g of test compound and 1 g of Gummi Arabicum/100 ml of physiological NaCl solution) is administered orally at the dosage mentioned in the Table 4. One hour after the administration 0.7% of Hexabarbitol.Na-salt is intraperitonerally administered at the dosage of 70 mg/kg body weight. The time between the introduction of sleep to waking is measured by righting reflex as the index. [Reference: A. M. Hjort, De E. J. Beer and D. W. Fassett; J. Pharmac., Exptl.

T1 sequence (P31389 whole entry): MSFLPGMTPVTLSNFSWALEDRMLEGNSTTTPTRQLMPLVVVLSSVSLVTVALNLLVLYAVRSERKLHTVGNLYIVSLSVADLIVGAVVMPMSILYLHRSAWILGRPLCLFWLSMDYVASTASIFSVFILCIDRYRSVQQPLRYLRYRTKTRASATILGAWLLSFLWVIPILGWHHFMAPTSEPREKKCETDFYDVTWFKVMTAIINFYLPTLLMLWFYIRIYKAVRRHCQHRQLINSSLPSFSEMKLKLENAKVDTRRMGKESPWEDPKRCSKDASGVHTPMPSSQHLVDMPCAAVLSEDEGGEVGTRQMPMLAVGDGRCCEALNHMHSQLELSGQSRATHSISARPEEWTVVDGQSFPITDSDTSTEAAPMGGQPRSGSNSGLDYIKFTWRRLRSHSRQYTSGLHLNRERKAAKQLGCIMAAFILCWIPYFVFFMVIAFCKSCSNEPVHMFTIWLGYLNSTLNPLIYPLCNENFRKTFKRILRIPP

On to `O=C1CCc2c(cccc2OCCCN2CCN(c3ccccc3)CC2)N1` [Compound 5, 5-[3-(4-Phenylpiperazinyl)propoxy]-3,4-dihydrocarbostyril dihydrochloride], for which the ED50 in series [1] came to 1.28 mg/kg. Besides, the Kb in series [2] was 1.35 nM. In addition, the “Anesthesia increasing activity” value in series [3] (0.5 mg/kg) was determined as 5.2 ± 2.1 min; in series [3] (1 mg/kg), 8.5 ± 3.5 min; in series [3] (2 mg/kg), 9.6 ± 4.1 min; in series [3] (4 mg/kg) it was 12.7 ± 3.9 min. In series [3], the “Time (minutes) between introduction of anesthesia and waking” value (“Time (minutes) between introduction” below) stood at 16.9 ± 7.9 min.
As to `CN1C(=O)CCc2c(OCC(O)CN3CCN(c4ccccc4)CC3)cccc21` (centres unmarked) [Compound 7, 1-Methyl-5-[2-hydroxy-3-(4-phenylpiperazinyl)propoxy]-3,4-dihydrocarbostyril monohydrochloride], in series [2], the Kb was 0.132 nM. Also, the LD50 in series [4] (iv, female mice) turned out to be 432 mg/kg; in series [4] (iv, male mice), 424 mg/kg; in series [4] (po, female mice) it was 1650 mg/kg; in series [4] (po, male mice), 1600 mg/kg. For the same compound, the “Anesthesia increasing activity” value in series [3] (0.5 mg/kg) turned out to be 5.3 ± 2.5 min; in series [3] (1 mg/kg), 7.4 ± 3.1 min; in series [3] (2 mg/kg), 9.5 ± 3.8 min; in series [3] (4 mg/kg), 13.7 ± 4.7 min. Further, the “Time (minutes) between introduction” value in series [3] was 8.9 ± 2.4 min.
`CN1C(=O)CCc2c(OCCCN3CCN(c4ccccc4)CC3)cccc21` [Compound 9, 1-Methyl-5-[3-(4-phenylpiperazinyl)propoxy]-3,4-dihydrocarbostyril monohydrochloride]: the ED50 in series [1] was found to be 1.52 mg/kg. The same compound had a Kb in series [2] of 0.0263 nM. Moreover, in series [3], the “Time (minutes) between introduction” value was 9.5 ± 3.2 min.
As to `COc1ccccc1N1CCN(CCCOc2ccc3c(c2)NC(=O)CC3)CC1` [Compound 17, 7-{3-[4-(2-Methoxyphenyl)piperazinyl]propoxy}-3,4-dihydrocarbostyril], the “Sleep time (min.) [Mean ± SD]” value in series [5] (0.125 mg/kg) came out at 39.51 ± 8.45 min; in series [5] (0.25 mg/kg) it was 45.57 ± 10.05 min; in series [5] (0.5 mg/kg), 51.77 ± 6.60 min; in series [5] (1.0 mg/kg), 56.92 ± 6.13 min. The ED50 in series [1] stood at 0.92 mg/kg. This compound had a Kb in series [2] of 0.871 nM. Further, the LD50 in series [4] (iv, female mice) was found to be 216 mg/kg; in series [4] (iv, male mice), 218 mg/kg; in series [4] (po, female mice) it was 860 mg/kg; in series [4] (po, male mice), 898 mg/kg. For the same compound, the “Time (minutes) between introduction” value in series [3] came out at 13.6 ± 5.2 min.
`O=C1CCc2cc(Cl)c(OCCCN3CCN(c4ccccc4)CC3)c(Br)c2N1` [Compound 28, 6-Chloro-8-bromo-7-[3-(4-phenylpiperazinyl)propoxy]-3,4-dihydrocarbostyril dihydrochloride]: the Kb in series [2] is 0.229 nM. Besides, the “Time (minutes) between introduction” value in series [3] was found to be 10.2 ± 5.8 min.
Compound `COc1cc(N2CCN(CCCOc3ccc4c(c3)NC(=O)CC4)CC2)cc(OC)c1OC` [Compound 29, 7-{3-[4-(3,4,5-Trimethoxyphenyl)piperazinyl]propoxy}-3,4-dihydrocarbostyril dihydrochloride] gave a Kb in series [2] of 2.69 nM. Further, the “Anesthesia increasing activity” value was found to be 5.6 ± 2.8 min in series [3] (0.5 mg/kg), 6.6 ± 3.1 min in series [3] (1 mg/kg), 8.3 ± 3.7 min in series [3] (2 mg/kg) and 13.6 ± 4.9 min in series [3] (4 mg/kg). Besides, in series [3], the “Time (minutes) between introduction” value came out at 9.3 ± 4.4 min.
The compound `O=C1CCc2c(cccc2OCCCN2CCN(C3CCCCC3)CC2)N1` [Compound 30, 5-[3-(4-Cyclohexylpiperazinyl)propoxy]-3,4-dihydrocarbostyril] gave a Kb in series [2] of 44.7 nM. Besides, the “Time (minutes) between introduction” value in series [3] is 7.9 ± 3.7 min.
The compound `CC(=O)OCCN1CCN(CCCOc2ccc3c(c2)NC(=O)CC3)CC1` [Compound 32, 7-{3-[4-(2-Acetyloxyethyl)piperazinyl]propoxy}-3,4-dihydrocarbostyril] had a Kb in series [2] of 30.2 nM. The “Time (minutes) between introduction” value in series [3] stood at 7.9 ± 3.1 min.
For `O=C1CCc2ccc(OCCCN3CCN(CCO)CC3)cc2N1` [Compound 33, 7-{3-[4-(2-Hydroxyethyl)piperazinyl]propoxy}-3,4-dihydrocarbostyril], in series [2], the Kb was 95.5 nM. Further, the “Time (minutes) between introduction” value in series [3] was determined as 7.4 ± 2.6 min.
For the compound `CC(=O)N1CCN(CCCOc2ccc3c(c2)NC(=O)CC3)CC1` [Compound 34, 7-[3-(4-Acetylpiperazinyl)propoxy]-3,4-dihydrocarbostyril], the Kb in series [2] is 57.5 nM. The “Time (minutes) between introduction” value in series [3] was found to be 7.8 ± 3.4 min.
In series [2], `O=C1CCc2ccc(OCCCN3CCN(C(=O)c4ccccc4)CC3)cc2N1` [Compound 35, 7-[3-(4-Benzoylpiperazinyl)propoxy]-3,4-dihydrocarbostyril] showed a Kb of 2.63 nM. The “Time (minutes) between introduction” value in series [3] turned out to be 8.2 ± 3.7 min.
The matching figures for `O=c1ccc2cc(OCCCN3CCN(c4ccccc4)CC3)ccc2[nH]1` [Compound 36, 6-[3-(4-Phenylpiperazinyl)propoxy]carbostyril]: 10.2 nM and 15.3 ± 3.1 min.
As to `O=C1CCc2ccc(OCCCN3CCN(c4cccc(Cl)c4)CC3)cc2N1` [Compound 39, 7-{3-[4-(3-Chlorophenyl)piperazinyl]propoxy}-3,4-dihydrocarbostyril], in series [1], the median effective dose (ED50) amounted to 0.96 mg/kg. Further, in series [2], the Kb is 0.182 nM. Besides, the LD50 in series [4] (iv, female mice) amounted to 293 mg/kg; in series [4] (iv, male mice), 310 mg/kg; in series [4] (po, female mice), 1100 mg/kg; in series [4] (po, male mice), 1210 mg/kg. The “Time (minutes) between introduction” value in series [3] amounted to 5.0 ± 2.9 min.
`CN1C(=O)CN=C(c2ccccc2)c2cc(Cl)ccc21` [Diazepam, reference compound]: in series [1], the ED50 was determined as 7.29 mg/kg.
